# From US20090068286A1, “METHOD OF TREATING CANCER BY ADMINISTRATION OF 5-SUBSTITUTED NUCLEOSIDES” (RESprotect, GmbH, priority 2007, published 2009)
# Columns and labels:
# [1] = Plasma concentrations of BVDU, BVU and GEM in patients of the dose finding study (HPLC); assay type: in vivo, human
# Description: Dose finding study: 22 Patients with advanced pancreatic adenocarcinoma were eligible for treatment in this single arm study. The mean age was 60 years and 73% of patients were males. One patient without progressive disease was excluded from the study for withdrawal of consent after the first cycle. Of the 21 patients left, 15 were in stage IV and 6 in stage III. BVDU was administered in a combination with GEM. On day 1, on day 8 and on day 15 of each 28-day cycle, BVDU was given together with GEM. On days 2-4, on days 8-11, and on days 15-18 of a 28-day cycle, BVDU was given alone in the recovery phase.
# The starting dose of BVDU was 4×125 mg/day (total dose of 6,000 mg per treatment cycle) together with a fixed dose of GEM (1,000 mg/M^2). Subsequent total doses of BVDU per cycle were 7,500 mg, 9,000 mg, 10,500 mg, and 12,000 mg again in four patients per cohort. Dosage levels were administered as follows: First dose level: The starting dose of BVDU was 4×125 mg daily given at approximately 08:00 a.m. (1×125 mg BVDU), 12:00 a.m. (1×125 mg BVDU), 04:00 p.m. (1×125 mg BVDU), and 08:00 p.m. (1×125 mg BVDU). These doses were administered on days 1 to 4, days 8 to 11 and days 15 to 18; Second dose level: 1×250 mg+3×125 mg daily; Third dose level. 2×250 mg+2×125 mg daily; Forth dose level: 3×250 mg+1×125 mg daily; and, Fifth dose level: 4×250 mg daily.
# Approximately 1 hour after the 08:00 a.m. BVDU-administration on day 1, day 8 and day 15 of a cycle, the GEM infusion started and GEM was infused for 30 minutes.
# Analysis of the concentrations of GEM and BVDU (BVDU) as well as analysis of the concentrations of BVU ((E)-5-(2-bromovinyl)uracil, degradation product of BVDU) in plasma samples: 0.5 ml of plasma spiked with about 0.5 μg of 4-Propyl-2-thiouracil (PTU) as internal standard was extracted with 2.5 ml of methanol-acetonitrile (v/v, 1:9) by vigorous mixing for about 1 min. After centrifugation the supernatant was transferred to a beaker and evaporated to dryness at 50° C. under a gentle stream of nitrogen. The residue was dissolved in 1 ml of the solution used as mobile phase by 10 min treatment in an ultrasonic bath. After centrifugation the clear supernatant was used for HPLC-analysis. The concentrations of GEM and BVDU were calculated using a calibration curve with the respective standard substances. The concentrations of BVU were calculated using the calibration curve of BVDU and the determined response factor. Limits of detection: BVDU 20 ng/ml plasma; GEM 30 ng/ml plasma. Limits of quantification: BVDU 60 ng/ml plasma; GEM 100 ng/ml plasma.
# Pharmacokinetic Results BVDU: All measurements were performed within 9 hours. Therefore, only the first three intakes of BVDU-tablets were relevant in this context, and as consequence, in dose groups four and five the intake of tablets was identical. When the dose was doubled from 125 mg to 250 mg, the mean maximum BVDU concentration in plasma increased fivefold from 290 (±152) ng/ml to 1549 (±1058) ng/ml (FIG. 10).
# [2] = test system: dimethybenzanthracene (DMBA) induced tumors; assay: Growth of DMBA-induced tumors in SD rats under DOX ± BVDU; assay type: in vivo, rat; conditions: DOX 1 mg/kg
# Description: (§1) The reduction in toxic side effects of doxorubicin (DOX) was able to be shown in the test with rats (see Table 3). SD rats were treated with dimethybenzanthracene (DMBA). […] During the treatment and one day after each treatment, i.e. in the recovery phase, the animals obtained respectively 15 mg/kg BVDU. The recovery phase in vivo was 6× one day.
# [3] = Animal weight of DOX ± BVDU treated rats (toxic side effects); assay type: in vivo, rat
# Description: DT-D inactivates ROS and thus protects cells from non-specific ROS and electrophilic attacks. […] DOX treatment alone leads to weight losses because of the toxic side effects. It is certain that only the side effects (possibly the cardiotoxicity characteristic of DOX) are reduced by BVDU but not the toxic effects on the tumor.
# as §1
# AH13r tumor cells = assay: Hoechst 33258/propidium iodide (Hopi) double coloration for apoptosis; assay type: cell-based, rat; conditions: cytostatic
# Description: The indication that the reduction in cell number is based on apoptosis, was detected by means of Hoechst 33258/propidium iodide (Hopi) double coloration.
# pancreatic cancer = pancreatic cancer patients; cited from earlier work
# [4] = test system: advanced pancreatic cancer; conditions: pivotal study, Glimelius et al. 1996; cited from earlier work
# [5] = DMBA-induced tumors, BVDU 15 mg/kg, average of 5-8 rats
# [6] = SD rats, DOX 1 mg/kg, BVDU 15 mg/kg, average of 5-8 rats
smiles,measurement,setting,value
"O=c1[nH]cc(/C=C/Br)c(=O)[nH]1 [BVU, (E)-5-(2-bromovinyl)uracil]",Mean maximum BVU concentration,"[1]; lower end of the BVDU dose range (""from"")",1525 (±1012) ng/ml
same,Mean maximum BVU concentration,"[1]; upper end of the BVDU dose range (""to"")",4637 (±1353) ng/ml
"COc1cccc2c1C(=O)c1c(O)c3c(c(O)c1C2=O)C[C@@](O)(C(=O)CO)C[C@@H]3O[C@H]1C[C@H](N)[C@H](O)[C@H](C)O1 [DOX, doxorubicin]",Relative tumor size Day 1,[2]; [5],1
same,Relative tumor size Day 16,[2]; [5],1.5
same,Growth of DMBA-induced tumors,[2],inhibited in their growth
same,Relative animal weight Day 1,[3]; [6],0
same,Relative animal weight Day 16,[3]; [6],−7%
same,Animal weight change as index of toxic side effects,"[3]; rat, in vivo",weight losses
same,Apoptosis (HOPI double coloration),AH13r tumor cells,initiate apoptosis
"Nc1ccn([C@@H]2O[C@H](CO)[C@@H](O)C2(F)F)c(=O)n1 [GEM, gemcitabine]",GEM maximum values with increase of the BVDU dose,"[1]; BVDU 125 vs 250 mg, large variability between individual patients",appear to rise
same,GEM detectability in plasma,"[1]; at the second BVDU intake, 4 hours later",not detectable any more
same,Diarrhea,pancreatic cancer,2%
same,One-year survival,pancreatic cancer,17%
same,Overall survival,pancreatic cancer,5.9 months
same,Skin rash,pancreatic cancer,1%
same,Time to progression,pancreatic cancer,3.55 months
same,Median survival,[4],less than 6 months
"CO[C@@]12[C@H](COC(N)=O)C3=C(C(=O)C(C)=C(N)C3=O)N1C[C@@H]1N[C@@H]12 [MMC, mitomycin C]",Apoptosis (HOPI double coloration),AH13r tumor cells,initiate apoptosis
"O=C1c2c(O)ccc(O)c2C(=O)c2c(NCCNCCO)ccc(NCCNCCO)c21 [MXA, mitoxantrone]",Apoptosis (HOPI double coloration),AH13r tumor cells,initiate apoptosis
